Experimental data taken from patent US20240325340A1, “ISOFORM SPECIFIC AGONISTS TARGETING AKT KINASE” (Thomas Jefferson University, priority 2021, published 2024).
“Also recorded” adds a separate entry of the source. One block for each molecule: values may come before it.

What was measured:
[1] = test system: Akt; assay: Aerosolized inhalation (FlexiVent) Akt activation in mouse lung; assay type: in vivo
Method: 8 week old (wk) wild type mice were deprived of food overnight. Anesthetized mice were intubated on the FlexiVent system and challenged with aerosolized inhaled insulin or T625 as indicated. Lung tissue was harvested 20 minutes after drug inhalation. Extracts were immunoblotted with indicated antibodies.
(§1) A FlexiVent system (SCIREQ) was used to deliver Akt activator, T625, directly to mouse lung. This procedure closely mimics the clinical application of inhaled insulin. […] Akt activators were also administered in the setting of mouse cardiac ischemia-reperfusion injury model (FIGS. 13A-13C). T625 was directly injected into the left ventricular free wall at the time of ischemic ligation of exteriorized heart. Also, to mimic clinical use, (IP) Akt activators were intraperitoneally injected within 10 min after ischemia initiation. It was shown that both directly applied and intraperitoneally injected Akt activators activated Akt in the heart. Finally, a splinted murine excisional wound model that mimic human wound healing was used. Akt activators were placed directly into the wound ring, mimicking the clinical topical application of growth factors.

[2] = test system: E17-Y18-I19 and R23-R25 mutated Akt kinase (Akt1-LT); assay: pT308 phosphorylation of mutated Akt1-LT constructs in H9C2 cells; assay type: cell-based; settings: 2 μM insulin 15 minutes
From the text: FIGS. 3A-3D: illustrate a model of T625 C-6 interaction space within the Akt PH domain and biochemical validation of the model. FIG. 3A: Model of the Akt2 PH-domain bound to T625 where all residue numbering corresponds to the Akt2 sequence. The C-6 Cl group act as the most optimal structural mimetic of the phosphate's electrostatic interactions with Arg23 and surrounding residues. […] To distinguish heterologous-expressed Akt from endogenous Akt, a 41 amino acid large tag containing the HA-epitope was fused with Akt1 (Akt1-LT) and specific mutations were created by site-directed mutagenesis. H9C2 cells expressing the indicated mutant constructs were stimulated for 15 minutes with 2 μM insulin, then switch to serum-free medium with 30 μM T625 as indicated for 60 minutes. […] H9C2 cells expressing the indicated mutant constructs were stimulated for 15 minutes with 2 μM insulin, then switch to serum-free medium with 20 μM T625 as indicated for 90 minutes. Phosphorylation of T308 in Akt1-LT and endogenous Akt, HA and GAPDH loading control blots are shown. FIG. 3D: Graph of specific pT308 phosphorylation in the indicated Akt1-LT constructs with or without T625 treatment. N is indicated.

[3] = test system: Akt; assay: Ceramide and cathepsin G blockade of insulin activation of Akt in neonatal rat myocytes; assay type: cell-based; settings: 30 μM T625 with insulin, 30 minutes
Method: (§2) H9C2 myoblasts or neonatal rat myocytes were treated with neutrophil protease Cathepsin G (0.01 U/mL), 4 hr or with 100 μM C2-Ceramide (100 μM), 2 hr. Then cells were stimulated with insulin with or without 30 μM T625 for 30 minutes. Lysates were immunoblotted with the indicated antibodies.

[4] = test system: cells; assay: Cellular toxicity (cells not specified); assay type: cell-based
[5] = molecular target: recombinant pAkt1 (Homo sapiens, UniProt P31749); assay: Recombinant phospho-Akt dephosphorylation by PP2A or total cellular phosphatase extracts (immunoblot pT308); assay type: biochemical; settings: 30 minutes at 30° C.
Chain of recombinant pAkt1 (P31749 whole entry): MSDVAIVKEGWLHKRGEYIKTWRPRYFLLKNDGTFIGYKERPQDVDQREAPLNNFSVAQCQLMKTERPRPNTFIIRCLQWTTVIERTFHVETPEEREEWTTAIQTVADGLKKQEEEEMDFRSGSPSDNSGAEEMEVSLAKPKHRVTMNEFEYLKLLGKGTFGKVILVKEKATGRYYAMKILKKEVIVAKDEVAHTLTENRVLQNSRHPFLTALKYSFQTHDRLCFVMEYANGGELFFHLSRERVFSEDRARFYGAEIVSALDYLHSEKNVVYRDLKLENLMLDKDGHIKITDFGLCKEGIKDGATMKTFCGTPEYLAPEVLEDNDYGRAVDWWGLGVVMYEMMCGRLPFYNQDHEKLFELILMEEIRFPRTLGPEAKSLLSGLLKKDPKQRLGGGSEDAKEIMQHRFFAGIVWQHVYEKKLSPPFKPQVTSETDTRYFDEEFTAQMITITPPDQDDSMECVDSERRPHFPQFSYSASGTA
Method: FIG. 1A: Recombinant phospho-Akt (50 ng) were pre-mixed with DMSO or with 40 μM 4H-Chromenes with carboxylate side chain (SC-79 and HA-14) or with 60 μM malononitrile side chain (T625) at 4° C. Then recombinant PP2A (70 ng PP2A-C) or total cellular phosphatase extracts were added and incubated for 30 minutes at 30° C. After incubation, protein extracts were subjected to immunoblot analysis using antibodies detecting phosphorylated Akt (T308), total Akt and PP2A catalytic subunit. FIG. 1B comprises a graph showing the percentage of Akt dephosphorylation at 30 minutes (Dephos. %) (n=6) *P<0.01 vs. DMSO.

[6] = Compound stability; assay type: physicochemical
[7] = test system: Akt; assay: Ceramide and cathepsin G blockade of insulin activation of Akt in H9C2 myoblasts; assay type: cell-based
Method: as §2

[8] = molecular target: T1, Akt2-LT WT (Homo sapiens, UniProt P31751); assay: Phosphorylation of heterologously expressed Akt2-LT WT in H9C2 myoblasts; assay type: cell-based; settings: serum-free media, 2 hr
T1 construct: expressed in transfected cells; host or cells: H9C2 myoblasts
T1 sequence (P31751 whole entry): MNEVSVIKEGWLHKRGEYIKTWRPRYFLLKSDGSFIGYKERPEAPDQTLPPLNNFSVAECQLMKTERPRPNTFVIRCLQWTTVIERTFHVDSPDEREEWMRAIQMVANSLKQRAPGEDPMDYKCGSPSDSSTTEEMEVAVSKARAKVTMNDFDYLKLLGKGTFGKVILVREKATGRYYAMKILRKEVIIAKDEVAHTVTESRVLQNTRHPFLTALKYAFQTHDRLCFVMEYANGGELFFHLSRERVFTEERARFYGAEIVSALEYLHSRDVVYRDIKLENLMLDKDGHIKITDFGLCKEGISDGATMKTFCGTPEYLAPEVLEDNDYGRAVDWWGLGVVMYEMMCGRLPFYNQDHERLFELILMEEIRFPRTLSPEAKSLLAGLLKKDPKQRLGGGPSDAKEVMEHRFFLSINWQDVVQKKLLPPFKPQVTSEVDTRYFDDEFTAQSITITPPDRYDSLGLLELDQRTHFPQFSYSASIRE
Method: FIGS. 2A-2B: illustrate the finding that T625's position 6 analogues differentially activate Akt and induce cellular toxicity. FIG. 2A: To distinguish heterologous-expressed Akt from endogenous Akt, a 41 amino acid large tag containing the HA-epitope was fused with wild type Akt2 (Akt2-LT WT). H9C2 myoblasts over-expressing Akt2-LT WT were treated with insulin or indicated compounds in serum-free media for 2 hr. Phosphorylation of T309 and total Akt2 are shown. FIG. 2B: Cell images show A549 AT2 cell morphology after 24 hr of drug treatment.

[9] = test system: Akt; assay: Mouse cardiac ischemia-reperfusion injury model, Akt activation in heart; assay type: in vivo; settings: directly injected or intraperitoneally injected after ischemic-ligation
Method: FIG. 13A: A schematic of ischemic-reperfusion procedure indicating drug injection time and heart harvest time. FIG. 13B: Illustrates immunoblots of pS473, Akt phospho-substrate, pPRAS40 and GAPDH in the WES auto-western system. After ischemic-ligation, T625 (0.8 μg in 20 μl PBS) were directly injected at three spots of exposed ventricular wall. Injected insulin was used as a control. FIG. 13C: Illustrates immunoblots of pT308, total Akt (tAkt) and GAPDH and quantified pT308/tAkt ratio. After ischemic-ligation, T620 and T625 were directly injected or intraperitoneally injected.
as §1, with “Akt activators were placed directly into the wound ring, mimicking the clinical topical application of growth factors.” left out

[10] = test system: Akt; assay: Akt activation (phospho-T308, p-PRAS40) in human epithelial cells (Hacat); assay type: cell-based; settings: for efficacy in Akt activation compared to RA97 / length of action in Akt activation compared to RA97 / phosphorylation of Akt substrate PRAS40: 40 μM, serum-starved Hacat; for efficacy in Akt activation compared to RA97 / length of action in Akt activation compared to RA97: 2 hr, 4 hr or 24 hr; for synergy with FBS in Akt activation: 10 μM or 20 μM with 0.25% fetal bovine serum; for synergy with FBS in Akt activation / Akt activation at low dose (phospho-T308): Hacat; for synergy with FBS in Akt activation / Akt activation at low dose (phospho-T308) / phosphorylation of Akt substrate PRAS40: 6 hr; for Akt activation at low dose (phospho-T308): 10 μM or 20 μM
Method: FIGS. 6A-6D illustrate immunoblots for Akt activators converted from non-PAINS Akt antagonists. FIG. 6A: 40 μM of each compound derived from sulfonamides, di-tert butylphenols, or pyridines were incubated in human epithelial cells (A549) for 2.5 hr. Lysates were probed for phospho-T308 and total Akt (tAkt) using ProteinSimple WES digital western system. Insulin was uses as positive control. […] 40 μM of each compound was incubated in serum-starved human epithelial cells (Hacat) for 2 hr, 4 hr, or 24 hr as indicated. Cell lysates were probed for phospho-T308 and total Akt (tAkt). […] 10 μM or 20 μM of T775 or T776 were incubated with or without 0.25% fetal bovine serum (FBS) medium in human epithelial cells (Hacat) for 6 hr. Cell lysates were probed for phospho-T308, total Akt (tAkt), and GAPDH. […] 40 μM of each compound was incubated in serum-starved human epithelial cells (Hacat) for 6 hr. Cell lysates were probed for phospho-T308, total Akt (tAkt), Akt substrate, p-PRAS40, and GAPDH.

[11] = test system: A549 cells; assay: Cytotoxicity by release of lactate dehydrogenase (LDH) in A549 cells; assay type: cell-based, human; settings: 40 μM, 24 hours, serum-free media
Method: Cytotoxicity was determined by the release of lactate dehydrogenase (LDH) into cell culture media. A549 cells were incubated with 40 μM of each compound for 24 hours in serum-free media (n=3 for each compound). FIG. 8B: A visual assessment of cell morphology after 24 hrs treatment with 40 μM of each compound in serum-free media. 100× images are shown.

[12] = test system: Hacat cells; assay: Cellular toxicity / cell morphology in Hacat cells after 24 hrs; assay type: cell-based, human; settings: 40 μM
[13] = cited from earlier work

compound stability [6]: enhanced compound stability
Molecule: N#CC1=C(N)Oc2ccc(Cl)cc2C1C(C#N)C#N (centres unmarked) [T625, 2-(2-amino-6-chloro-3-cyano-4H-chromen-4-yl)propanedinitrile]
Akt kinase activation in mouse lung ([1]; 60 μg, delivered directly to mouse lung by FlexiVent): retaining Akt activation; also recorded: robustly activated Akt kinase in mouse lung | insulin sensitivity in vivo ([1]; aerosolized inhaled, lung tissue harvested 20 minutes after inhalation): enhanced insulin sensitivity | Akt activation in mouse lung tissue in combination with insulin ([1]; suboptimal dose 15 μg with suboptimal insulin dose 5 μg): cooperated with suboptimal insulin dose (5 μg) to activate Akt in mouse lung tissue | effect on phosphorylation of mutated Akt kinase ([2]; E17-Y18-I19 and R23-R25 mutants, then 30 μM T625 60 minutes): acts as an inhibitor | effect on phosphorylation of mutated Akt kinase ([2]; mutations in E17 and/or 119, then 20 μM T625 90 minutes): converting the T625 response from activation to inhibition | rescue of ceramide and cathepsin G blockade of Akt activation by insulin [3]: rescues ceramide and cathepsin G blockade of Akt activation | cellular toxicity [4]: dramatically reduced cellular toxicity | block of recombinant pAkt1 dephosphorylation by PP2A and cellular phosphatases ([5]; 60 μM compound): block recombinant pAkt1 dephosphorylation by PP2A and cellular phosphatases | rescue of ceramide and cathepsin G blockade of Akt activation by insulin ([7]; H9C2 myoblasts, 30 μM T625 with insulin, 30 minutes): rescues ceramide and cathepsin G blockade of Akt activation | Akt activation in cells (phosphorylation of T309 of Akt2-LT WT) [8]: retaining Akt activation; also recorded: activate Akt | Akt activation in mouse heart during ischemia-reperfusion [9]: enhanced Akt activation in mouse heart

Molecule: CCCc1nc2ccc(Cl)cc2c(-c2ccccc2)c1C(=O)OCC [T748, ethyl 6-chloro-4-phenyl-2-propylquinoline-3-carboxylate]
toxicity compared to RA97 [4]: lack of toxicity | efficacy in Akt activation compared to RA97 [10]: improved efficacy | length of action in Akt activation compared to RA97 [10]: improved length of action

Molecule: CCCCCCCCCCCCC/C=C/[C@@H](O)[C@H](CO)NC(C)=O [C2-ceramide, reference compound]
block of insulin activation of Akt ([7]; 100 μM, 2 hr): block insulin activation of Akt

compound stability [6]: highly labile
Molecule: CCOC(=O)C1=C(N)Oc2ccc(Cl)cc2C1C(C#N)C(=O)OCC (centres unmarked) [SC79]
cellular toxicity [4]: toxic to cells | block of recombinant pAkt1 dephosphorylation by PP2A and cellular phosphatases ([5]; 40 μM compound): enhance intrinsic resistance of the Akt kinase to dephosphorylation; also recorded: block recombinant pAkt1 dephosphorylation by PP2A and cellular phosphatases

Molecule: CCOC(=O)CCc1c(C(=O)OCC)c(C(C)(C)C)nc2ccc(Cl)cc12 [T776, ethyl 2-tert-butyl-6-chloro-4-(3-ethoxy-3-oxopropyl)quinoline-3-carboxylate]
cellular toxicity (LDH release) [11]: failed to show significant cellular toxicity | cellular toxicity [12]: failed to show significant cellular toxicity | toxicity compared to RA97 [4]: lack of toxicity | synergy with FBS in Akt activation [10]: synergize with FBS | Akt activation at low dose (phospho-T308) [10]: activate Akt | efficacy in Akt activation compared to RA97 [10]: improved efficacy | length of action in Akt activation compared to RA97 [10]: improved length of action | phosphorylation of Akt substrate PRAS40 [10]: phosphorylated Akt substrate, PRAS40

Molecule: CC(C)(Sc1cc(C(C)(C)C)c(O)c(C(C)(C)C)c1)Sc1cc(C(C)(C)C)c(OC(=O)CCC(=O)O)c(C(C)(C)C)c1 [Succinobucol]
insulin sensitivity ([13]; literature): improve insulin sensitivity | drug safety ([13]; numerous clinical trials of specific diabetic patient populations): established drug safety record

Molecule: CCCc1nc2ccc(Cl)cc2c(CCC(=O)OCC)c1C(=O)OCC [T775, ethyl 6-chloro-4-(3-ethoxy-3-oxopropyl)-2-propylquinoline-3-carboxylate]
cellular toxicity (LDH release) [11]: failed to show significant cellular toxicity | cellular toxicity [12]: failed to show significant cellular toxicity | toxicity compared to RA97 [4]: lack of toxicity | synergy with FBS in Akt activation [10]: synergize with FBS | Akt activation at low dose (phospho-T308) [10]: activate Akt | efficacy in Akt activation compared to RA97 [10]: improved efficacy | length of action in Akt activation compared to RA97 [10]: improved length of action | phosphorylation of Akt substrate PRAS40 [10]: phosphorylated Akt substrate, PRAS40

compound stability [6]: highly labile
Molecule: CCOC(=O)C1=C(N)Oc2ccc(Br)cc2C1C(C#N)C(=O)OCC (centres unmarked) [HA14]
cellular toxicity [4]: toxic to cells | block of recombinant pAkt1 dephosphorylation by PP2A and cellular phosphatases ([5]; 40 μM compound): enhance intrinsic resistance of the Akt kinase to dephosphorylation; also recorded: block recombinant pAkt1 dephosphorylation by PP2A and cellular phosphatases

B1: cathepsin G: neutrophil protease Cathepsin G (protein, UniProt P08311 21-244, looked up)
Cathepsin G: IIGGRESRPHSRPYMAYLQIQSPAGQSRCGGFLVREDFVLTAAHCWGSNINVTLGAHNIQRRENTQQHITARRAIRHPQYNQRTIQNDIMLLQLSRRVRRNRNVNPVALPRAQEGLRPGTLCTVAGWGRVSMRRGTDTLREVQLRVQRDRQCLRIFGSYDPRRQICVGDRRERKAAFKGDSGGPLLCNNVAHGIVSYGKSSGVPPEVFTRVSSFLPWIRTTMRS
block of insulin activation of Akt ([7]; 0.01 U/mL, 4 hr): block insulin activation of Akt
